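Five concentrations, 48 hours, 96-well plates. TGI denotes the concentration required for complete inhibition of growth.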
Assays:
Experiment in all cases: NCI anticancer screen, dose series, 48 h
786-0 renal = system: 786-0 renal
ACHN renal = system: ACHN renal
COLO 205 colon = system: COLO 205 colon
M14 melanoma = system: M14 melanoma
RPMI-8226 leukemia = system: RPMI-8226 leukemia
SF-268 CNS = system: SF-268 CNS
SF-539 CNS = system: SF-539 CNS
SK-MEL-5 melanoma = system: SK-MEL-5 melanoma
UACC-257 melanoma = system: UACC-257 melanoma
EKVX NSCLC = system: EKVX NSCLC
HS 578T breast = system: HS 578T breast
HT29 colon = system: HT29 colon
NCI-H226 lung = system: NCI-H226 lung
SF-295 CNS = system: SF-295 CNS

Compound	TGI (786-0 renal) [µM]	TGI (ACHN renal) [µM]	TGI (COLO 205 colon) [µM]	TGI (M14 melanoma) [µM]	TGI (RPMI-8226 leukemia) [µM]	TGI (SF-268 CNS) [µM]	TGI (SF-539 CNS) [µM]	TGI (SK-MEL-5 melanoma) [µM]	TGI (UACC-257 melanoma) [µM]	TGI (EKVX NSCLC) [µM]	TGI (HS 578T breast) [µM]	TGI (HT29 colon) [µM]	TGI (NCI-H226 lung) [µM]	TGI (SF-295 CNS) [µM]
C=C=C[P+](c1ccccc1)(c1ccccc1)c1ccccc1	17.7	> 100	10.3	19.5	6.37	> 100	40.2	23.3	39.5	–	–	–	–	–
CN(C)CCNc1ccc(NCC[N+](C)(C)Cc2ccc([N+](=O)[O-])cc2)c2c1C(=O)c1c(O)ccc(O)c1C2=O	> 100	–	> 100	–	> 100	> 100	–	47.5	–	> 100	> 100	> 100	> 100	–
CC(C)OC(=O)NCCn1cc(-c2ccccc2)nn1	> 100	> 100	> 100	> 100	> 100	> 100	> 100	> 100	> 100	> 100	–	> 100	> 100	> 100
CN1CCN(Cn2nc(COc3ccccc3Cl)n(/N=C/c3ccc(-c4ccc(Cl)cc4Cl)o3)c2=S)CC1	32.8	–	–	81.7	83.8	> 100	62.6	71.8	> 100	> 100	> 100	42.9	> 100	87.3
C#CCN(Cc1ccc2nc(-c3ccccc3)c(Cl)nc2c1)c1ccc(F)cc1	> 100	> 100	> 100	> 100	> 100	> 100	> 100	> 100	> 100	> 100	> 100	> 100	–	> 100
COc1ccc2c(c1)/C(=C/c1c(O)[nH]c(=S)[nH]c1=O)C=N2	> 100	> 100	> 100	> 100	–	61.8	> 100	> 100	> 100	> 100	> 100	> 100	> 100	> 100
CCC(C)N1CN(c2ccccc2)C2(CCN(CC3COc4ccccc4O3)CC2)C1=O (stereo not drawn)	35.5	> 100	47.7	46.3	47.2	> 100	33.3	28.9	65.9	64.1	–	40.3	52.3	39.1
CC[C@@H]1/C=C/C=C/C[C@H](C)[C@@H](O)[C@@H](C)C(=O)[C@H](C)[C@@H](O)[C@H](C)C(=O)[C@H](C)[C@@H](O)[C@H](C)/C=C/C(=O)O[C@H]2[C@@H](C)[C@@H](CC1)O[C@@]1(CC[C@@H](C)[C@@H](CC(C)O)O1)[C@@H]2C (stereo partly drawn)	> 25	16.7	4.62	> 14.7	14.7	> 25	24.6	3.38	1.82	7.44	> 23.5	13.9	–	–
C=C(Br)C(C)(Cl)CCC(Br)C(C)(C)Br (stereo not drawn)	> 100	> 100	> 100	> 100	67	–	> 100	> 100	> 100	–	–	> 100	> 100	> 100
Cc1cn([C@@H]2O[C@H](CO[Si](C)(C)C(C)(C)C)[C@]3(O[C@H]3C(=O)NO)[C@H]2O[Si](C)(C)C(C)(C)C)c(=O)[nH]c1=O	2.87	3.06	–	3.56	2.84	2.97	2.83	3.58	6.92	3.59	4.23	2.92	3.69	3.4
COc1cccc2c1C(=O)c1c(O)c3c(c(O)c1C2=O)C[C@@](O)(C(=O)CO)CC3OC1CC(N(C)CCOCC(OC(C)=O)OC(C)=O)C(O)C(C)O1 (stereo partly drawn)	> 0.01	> 0.01	–	> 0.01	> 0.01	> 0.01	> 0.01	> 0.01	> 0.01	> 0.01	–	> 0.01	> 0.01	> 0.01
O=c1[nH]c(=S)[nH]cc1CN1CCOCC1	> 100	> 100	> 100	> 100	> 100	> 100	> 100	> 100	> 100	> 100	> 100	> 100	–	> 100
OCC(O)COCn1cc(Cn2ncc3c(SCc4ccccc4)ncnc32)nn1 (stereo not drawn)	> 100	> 100	> 100	> 100	> 100	> 100	> 100	> 100	> 100	> 100	–	> 100	> 100	> 100
O=C(CC(NC(=O)OCc1ccccc1)C(=O)NC1Cc2ccccc2C1=O)OCc1ccccc1 (stereo not drawn)	> 100	> 100	–	> 100	> 100	> 100	> 100	> 100	> 100	> 100	> 100	> 100	> 100	> 100
O=C(c1ccc2ccccc2c1)C1(I)S(=O)(=O)OCCOS1(=O)=O	> 100	> 100	> 100	> 100	> 100	–	–	> 100	–	> 100	–	> 100	–	0.0298
O=C(O)C(Cc1cc(I)c(O)c(I)c1)C1CCCCC1 (stereo not drawn)	> 100	> 100	–	> 100	–	> 100	–	53.5	> 100	> 100	> 100	98.3	> 100	> 100
Cc1nc2ccc(F)cc2c2c1CCS2	> 100	> 100	> 100	–	> 100	> 100	> 100	> 100	> 100	> 100	> 100	> 100	–	> 100
CCN(CC)C(=O)CCn1ccc(=O)[nH]c1=O	> 100	> 100	> 100	> 100	> 100	> 100	> 100	> 100	–	> 100	–	> 100	> 100	> 100
